From US20240082269A1, “METHODS AND PRODUCTS INCLUDING SPECIFIC CANNABINOIDS” (priority 2022, published 2024) come the findings set out here.

The experiment is described as follows: Four Hempson Oil studies taken together (safety, overall THCV effect). The format is in vivo, human. The note with it: daily use of 8 mg doses of THCV over 60-180 days. From the text:
The following pre-clinical and clinical research has shown that small daily oral amounts of Hempson Oil®—a hemp-extract high in cannabidiol (CBD), tetrahydrocannabivarin (THCV), and cannabidivarin (CBDV)—have consistent effects of weight loss, reduction in abdominal girth, blood sugar (HgbA1c) and blood lipid ratios. These comparative examples are shown merely for the effect the active ingredients may have upon metabolic disorders and weight loss.
The Hempson Oil Studies: from 2019 until April 2021, several independent high quality human trials were completed using an oral Hempson® oil in a micellized tincture or non-micellized oil in gel caps. All of the studies were NIH-supported. All studies were double-blind, placebo-controlled, multisite, and randomized effectiveness studies of a hemp extract, known as Hempson® oil that is high in CBD, THCV, and CBDV. The studies used either type II diabetics, obese or healthy adults. The studies done with micellized oil tincture used lower doses with micellized Hempson® oil because of increased the absorption and bioavailability of the cannabinoids.
In each study, subjects were randomly assigned to either the Hempson Oil® group (100 subjects) or the control group (50 subjects). Each subject signed a study consent form. Subjects were instructed to orally ingest this study product once daily. All subjects were instructed not to change their eating, drinking, or exercise habits for the duration of this study.
All of the study results reported below were statistically significant (p<0.05) compared to placebo results.

SMILES strings stand for the structures.

In the case of `CCCc1cc(O)c2c(c1)OC(C)(C)[C@@H]1CCC(C)=C[C@@H]21` [THCV, tetrahydrocannabivarin], the “A1C blood levels (diabetic measure)” value is given as “decrease in A1C blood levels”, the Abdominal girth result is reported as “decrease of abdominal girth” and the Weight result is listed as “statistically significant weight loss”.
